Common to all, as to assay type: cell-based
Test [1] deals with IL-17A. The test can be described thus: Cytokine assay: IL-17A production by human PBMC stimulated with PHA. To be noted: IC50 class, read-out: IL-17A Inhib. Here is the method:
(§1) Cytokine Assay: Analysis of Proliferation of and Cytokine Production by Human PBMC Stimulated with PHA
(§2) Peripheral blood mononuclear cells (PBMC) from healthy human donors were purified using Accuspin™ System-Histopaque-1077 (Sigma) according to the protocol recommended by the manufacturer. Purified PBMC were then washed twice with phosphate-buffered saline (PBS) and resuspended in RPMI1640 culture medium supplemented with 10% dialyzed heat inactivated fetal calf serum, 1.5 mM L-glutamine, 100 U penicillin/ml, and […] (all from PAN Biotech, Aidenbach, Germany). For stimulation, PBMC were seeded at 1×10^5 cells/well, activated with 2 μg/ml phytohaemagglutinin (PHA, Sigma) and incubated with the test compounds for 48 hours. IL-17A, IL-17F and INF-γ were then determined in the culture supernatant using a Luminex BioPlex system, following the manufacturer's instructions (BioRad, Munich, Germany). For screening, compounds were used at 10, 1, 0.1 and 0.01 μM. To determine the IC50, compounds were titrated semilogarithmically.
(§3) Cytokines were determined in the aforementioned culture supernatant using the following methods: IL-17A was measured using the human homodimer IL-17A ELISA Ready Set Go Kit from eBioscience (Frankfurt, Germany); IL-17F using the human IL-17F ELI-Pair from Hölzel DiagnosticaGmBH (Köln, Germany); and IFN-γ using the OptEIA human IFN-g ELISA from BD Bioscience (Heidelberg, Germany), all following the manufacturer's instructions.

In test [2] the test system is IL-17F. The test is described as follows: Cytokine assay: IL-17F production by human PBMC stimulated with PHA. To be noted: IC50 class, read-out: IL-17F Inhib. Here is the method: as §1, §2, §3
Test [3] deals with INF-γ. The test can be described thus: Cytokine assay: INF-γ production by human PBMC stimulated with PHA. To be noted: IC50 class, read-out: IFN-gamma Inhib. As for the experimental part: as §1, §2, §3

Read-outs that look alike come from different tables or passages of the source. Some results are limits rather than exact numbers.

Consider `C=CCCC(O)(CC1CC1)c1c(-c2c(F)cccc2Cl)noc1-c1cnn(CC(C)(C)O)c1C(F)(F)F` (racemic) [Example 38, 2-[3-(2-chloro-6-fluorophenyl)-5-[1-(2-hydroxy-2-methylpropyl)-5-(trifluoromethyl)-1H-pyrazol-4-yl]-1,2-oxazol-4-yl]-1-cyclopropylhex-5-en-2-ol], for which the IC50 in test [1] (Homo sapiens, PBMC) is 500 to 5000 nM; in test [2] (Homo sapiens, PBMC), no less than 5000 nM; in test [3] (Homo sapiens, PBMC), no less than 5000 nM.

Regarding `CCOC(=O)c1c(-c2c(F)cccc2Cl)noc1-c1cnn([C@H]2C[C@@](C)(O)C2)c1C(F)(F)F` [Example 11, ethyl 3-(2-chloro-6-fluorophenyl)-5-[1-(3-hydroxy-3-methylcyclobutyl)-5-(trifluoromethyl)-1H-pyrazol-4-yl]-1,2-oxazole-4-carboxylate], the IC50 in test [1] was less than 50 nM.

For the molecule `COC(=O)c1c(-c2ccccc2Cl)noc1-c1cnn([C@H]2C[C@](C)(O)C2)c1C` [Example 17, methyl 3-(2-chlorophenyl)-5-(1-(3-hydroxy-3-methylcyclobutyl)-5-methyl-1H-pyrazol-4-yl)isoxazole-4-carboxylate], the IC50 in test [1], in test [2] and in test [3] was 500 to 5000 nM in each case.

With `COC(=O)c1c(-c2cccnc2OC)noc1-c1cnn(C[C@@H](C)O)c1C(F)(F)F` [Example 21, methyl (R)-5-(1-(2-hydroxypropyl)-5-(trifluoromethyl)-1H-pyrazol-4-yl)-3-(2-methoxypyridin-3-yl)isoxazole-4-carboxylate], the IC50 fell in the range of 500 to 5000 nM in test [1] (Homo sapiens, PBMC); 500 to 5000 nM in test [2] (Homo sapiens, PBMC); 500 to 5000 nM in test [3] (Homo sapiens, PBMC).

As to `COC(=O)c1c(-c2ccccc2Cl)noc1-c1cnn(C[C@H](C)O)c1C(F)(F)F` [Example 22, methyl (S)-3-(2-chlorophenyl)-5-(1-(2-hydroxypropyl)-5-(trifluoromethyl)-1H-pyrazol-4-yl)isoxazole-4-carboxylate], the IC50 in test [1] (Homo sapiens, PBMC) is 50 to 500 nM; in test [2] (Homo sapiens, PBMC), 50 to 500 nM; in test [3] (Homo sapiens, PBMC), less than 50 nM.

Take `COC(=O)c1c(-c2ccccc2Cl)noc1-c1cnn(C[C@H](C)O)c1C` [Example 24, methyl (S)-3-(2-chlorophenyl)-5-(1-(2-hydroxypropyl)-5-methyl-1H-pyrazol-4-yl)isoxazole-4-carboxylate]: the IC50 in test [1] (Homo sapiens, PBMC) was in the range of 500 to 5000 nM; in test [2] (Homo sapiens, PBMC) it was 50 to 500 nM; in test [3] (Homo sapiens, PBMC), 50 to 500 nM.

In the case of `COC(=O)c1c(-c2c(F)cccc2Cl)noc1-c1cnn(C2CC(O)C2)c1C(F)(F)F` (stereo not drawn) [Example 28, methyl 3-(2-chloro-6-fluorophenyl)-5-(1-(3-hydroxycyclobutyl)-5-(trifluoromethyl)-1H-pyrazol-4-yl)isoxazole-4-carboxylate], the IC50 lay in the range of 500 to 5000 nM in test [1] (Homo sapiens, PBMC); 500 to 5000 nM in test [2] (Homo sapiens, PBMC); 500 to 5000 nM in test [3] (Homo sapiens, PBMC).

For `COC[C@]1(O)C[C@@H](n2ncc(-c3onc(-c4ccccc4Cl)c3C(=O)OC)c2C(F)(F)F)C1` [Example 29, methyl 3-(2-chlorophenyl)-5-(1-(3-hydroxy-3-(methoxymethyl)cyclobutyl)-5-(trifluoromethyl)-1H-pyrazol-4-yl)isoxazole-4-carboxylate], the IC50 in test [1] (Homo sapiens, PBMC) was in the range of 500 to 5000 nM; in test [2] (Homo sapiens, PBMC), 500 to 5000 nM; in test [3] (Homo sapiens, PBMC), 50 to 500 nM.

In the case of `Cc1nnc(-c2c(-c3c(F)cccc3Cl)noc2-c2cnn(CC(C)(C)O)c2C(F)(F)F)o1` [Example 30, 1-(4-(3-(2-chloro-6-fluorophenyl)-4-(5-methyl-1,3,4-oxadiazol-2-yl)isoxazol-5-yl)-5-(trifluoromethyl)-1H-pyrazol-1-yl)-2-methylpropan-2-ol], the IC50 in test [1] (Homo sapiens, PBMC) lay within 50 to 500 nM; in test [2] (Homo sapiens, PBMC), 500 to 5000 nM; in test [3] (Homo sapiens, PBMC), 500 to 5000 nM.

Turning to `CC(=O)c1c(-c2c(F)cccc2Cl)noc1-c1cnn(CC(C)(C)O)c1C(F)(F)F` [Example 34, 1-(3-(2-chloro-6-fluorophenyl)-5-(1-(2-hydroxy-2-methylpropyl)-5-(trifluoromethyl)-1H-pyrazol-4-yl)-1,2-oxazol-4-yl)ethanone], the IC50 lay in the range of 500 to 5000 nM in test [1] (Homo sapiens, PBMC); 500 to 5000 nM in test [2] (Homo sapiens, PBMC); 500 to 5000 nM in test [3] (Homo sapiens, PBMC).

As for `CC(C)(O)Cn1ncc(-c2onc(-c3c(F)cccc3Cl)c2C(=O)CC2CCC2)c1C(F)(F)F` [Example 36, 1-[3-(2-chloro-6-fluorophenyl)-5-[1-(2-hydroxy-2-methylpropyl)-5-(trifluoromethyl)-1H-pyrazol-4-yl]-1,2-oxazol-4-yl]-2-cyclobutylethan-1-one], the IC50 in test [1] (Homo sapiens, PBMC) lay within 500 to 5000 nM; in test [2] (Homo sapiens, PBMC) it was 50 to 500 nM; in test [3] (Homo sapiens, PBMC) it was 50 to 500 nM.

For the molecule `C=CCCC(=O)c1c(-c2c(F)cccc2Cl)noc1-c1cnn(CC(C)(C)O)c1C(F)(F)F` [Example 37, 1-[3-(2-chloro-6-fluorophenyl)-5-[1-(2-hydroxy-2-methylpropyl)-5-(trifluoromethyl)-1H-pyrazol-4-yl]-1,2-oxazol-4-yl]pent-4-en-1-one], the IC50 fell in the range of 50 to 500 nM in test [1] (Homo sapiens, PBMC); 50 to 500 nM in test [2] (Homo sapiens, PBMC); 50 to 500 nM in test [3] (Homo sapiens, PBMC).

In the case of `COCC(=O)c1c(-c2c(F)cccc2Cl)noc1-c1cnn(CC(C)(C)O)c1C(F)(F)F` [Example 39, 1-[3-(2-chloro-6-fluorophenyl)-5-[1-(2-hydroxy-2-methylpropyl)-5-(trifluoromethyl)-1H-pyrazol-4-yl]-1,2-oxazol-4-yl]-2-methoxyethan-1-one], the IC50 in test [1] (Homo sapiens, PBMC) is 500 to 5000 nM; in test [2] (Homo sapiens, PBMC), no less than 5000 nM; in test [3] (Homo sapiens, PBMC) it was 500 to 5000 nM.

In the case of `COCC(=O)c1c(-c2c(F)cccc2Cl)noc1-c1cnn(C[C@@H](C)O)c1C(F)(F)F` [Example 40, 1-[3-(2-chloro-6-fluorophenyl)-5-{1-[(2R)-2-hydroxypropyl]-5-(trifluoromethyl)-1H-pyrazol-4-yl}-1,2-oxazol-4-yl]-2-methoxyethan-1-one], the IC50 in test [1] (Homo sapiens, PBMC) was 500 to 5000 nM; in test [2] (Homo sapiens, PBMC), 500 to 5000 nM; in test [3] (Homo sapiens, PBMC), 500 to 5000 nM.

Regarding `CC(C)(O)Cn1ncc(-c2onc(-c3c(F)cccc3Cl)c2C(=O)NC2CCCC2)c1C(F)(F)F` [Example 41, 3-(2-chloro-6-fluorophenyl)-N-cyclopentyl-5-(1-(2-hydroxy-2-methylpropyl)-5-(trifluoromethyl)-1H-pyrazol-4-yl)isoxazole-4-carboxamide], the IC50 in test [1] (Homo sapiens, PBMC) was no less than 5000 nM; in test [2] (Homo sapiens, PBMC), no less than 5000 nM; in test [3] (Homo sapiens, PBMC) it was no less than 5000 nM.

Consider `CC(C)(O)Cn1ncc(-c2onc(-c3c(F)cccc3Cl)c2C(=O)NC2CC2)c1C(F)(F)F` [Example 42, 3-(2-chloro-6-fluorophenyl)-N-cyclopropyl-5-(1-(2-hydroxy-2-methylpropyl)-5-(trifluoromethyl)-1H-pyrazol-4-yl)isoxazole-4-carboxamide], for which the IC50 is no less than 5000 nM in test [1] (Homo sapiens, PBMC); no less than 5000 nM in test [2] (Homo sapiens, PBMC); no less than 5000 nM in test [3] (Homo sapiens, PBMC).

`CC(C)(O)Cn1ncc(-c2onc(-c3c(F)cccc3Cl)c2C(=O)NC2CCC2)c1C(F)(F)F` [Example 43, 3-(2-chloro-6-fluorophenyl)-N-cyclobutyl-5-(1-(2-hydroxy-2-methylpropyl)-5-(trifluoromethyl)-1H-pyrazol-4-yl)isoxazole-4-carboxamide]: the IC50 in test [1] (Homo sapiens, PBMC) was in the range of 500 to 5000 nM; in test [2] (Homo sapiens, PBMC), 500 to 5000 nM; in test [3] (Homo sapiens, PBMC) it was 500 to 5000 nM.

Consider `C[C@@H](O)Cn1ncc(-c2onc(-c3c(F)cccc3Cl)c2C(=O)NC2CC2)c1C(F)(F)F` [Example 45, 3-(2-chloro-6-fluorophenyl)-N-cyclopropyl-5-(1-((2R)-2-hydroxypropyl)-5-(trifluoromethyl)-1H-pyrazol-4-yl)isoxazole-4-carboxamide], for which the IC50 in test [1] (Homo sapiens, PBMC) is 500 to 5000 nM; in test [2] (Homo sapiens, PBMC) it was 500 to 5000 nM; in test [3] (Homo sapiens, PBMC), 500 to 5000 nM.

In the case of `C[C@@H](O)Cn1ncc(-c2onc(-c3c(F)cccc3Cl)c2C(=O)NC2CCC2)c1C(F)(F)F` [Example 46, 3-(2-chloro-6-fluorophenyl)-N-cyclobutyl-5-(1-((2R)-2-hydroxypropyl)-5-(trifluoromethyl)-1H-pyrazol-4-yl)isoxazole-4-carboxamide], the IC50 was in the range of 500 to 5000 nM in test [1] (Homo sapiens, PBMC); 50 to 500 nM in test [2] (Homo sapiens, PBMC); 50 to 500 nM in test [3] (Homo sapiens, PBMC).

`Cc1c(-c2onc(-c3c(F)cccc3Cl)c2C(=O)OC2CC2)cnn1[C@H]1C[C@@](C)(O)C1` [Example 62, cyclopropyl 3-(2-chloro-6-fluorophenyl)-5-{5-methyl-1-[3-hydroxy-3-methylcyclobutyl]-1H-pyrazol-4-yl}-1,2-oxazole-4-carboxylate]: the IC50 in test [1] is less than 50 nM.

As to `COCc1c(-c2c(F)cccc2Cl)noc1-c1cnn([C@H]2C[C@@](C)(O)C2)c1C` [Example 70, 3-{4-[3-(2-chloro-6-fluorophenyl)-4-(methoxymethyl)-1,2-oxazol-5-yl]-5-methyl-1H-pyrazol-1-yl}-1-methylcyclobutan-1-ol], the IC50 in test [2] (Homo sapiens, PBMC) was 500 to 5000 nM; in test [3] (Homo sapiens, PBMC), 500 to 5000 nM.

For `COCc1c(-c2c(F)cccc2Cl)noc1-c1cnn([C@H]2C[C@](C)(O)C2)c1C` [Example 71, 3-{4-[3-(2-chloro-6-fluorophenyl)-4-(methoxymethyl)-1,2-oxazol-5-yl]-5-methyl-1H-pyrazol-1-yl}-1-methylcyclobutan-1-ol], the IC50 in test [2] (Homo sapiens, PBMC) lay in the range of 500 to 5000 nM; in test [3] (Homo sapiens, PBMC) it was 500 to 5000 nM.

The values above are taken from US11292788B2, “IL-17 and IFN-gamma inhibition for the treatment of autoimmune diseases and chronic inflammation” (Immunic AG, priority 2017, dated 2022).
